Experimental data reported in US20140128357A1, “METHODS OF PRODUCING AND USING BRASSINOSTEROIDS TO PROMOTE GROWTH, REPAIR AND MAINTENANCE OF SKELETAL MUSCLE AND SKIN” (Rutgers University, priority 2010, published 2014).

Tests used:
[1] = test system: collagen and elastin in skin; experiment: Collagen and elastin in skin of rats given oral HB (Example 16); type: in vivo, rat; settings: 20 and 60 mg/kg oral daily 24 d, written in present tense
Procedure: To evaluate the potential anabolic effects of plant brassinosteroids on the skin of animals, 20 and 60 mg/kg body weight of HB (HB20 and HB60, respectively) are orally administered daily to healthy rats fed normal diet for 24 d.
Collagen and elastin production are measured in the skin of animals treated with HB versus their control counterparts. Protein degradation of collagen and elastin is measured in the skin of animals treated with HB versus their control counterparts, e.g., by collagen or elastin ELISAs. The amount of collagen and elastin protein present in the skin of animals treated with HB is measured versus their control counterparts.

[2] = test system: TNF-α, TGF-β and ICAM-1 mRNA in wounds; experiment: Cytokine and chemokine mRNA in wound tissue, qPCR; type: in vivo; settings: day 10 post-wounding, 10 μg/mouse topically
Procedure: Cutaneous would healing is characterized by an initial inflammatory response. To evaluate the effect of brassinosteroids on inflammation in wound healing, mRNA levels of proinflammatory cytokines TNF-α and TGF-β and an adhesion chemokine ICAM-1 were measured in the wound tissue of control and treated mice on day 10 post-wounding and treatment with HB, positive control (CGS-21680), or negative control (vehicle).
Total RNA was extracted from fibroblasts using Trizol (Invitrogen, Carlsbad, Calif.). RNA was quantified spectrophotometrically by absorbance measurements at 260 and 280 nm using the NanoDrop reader (NanoDrop Technologies, Wilmington, Del.). Quality of RNA was assessed by gel electrophoresis. RNA was then treated with DnaseI (Invitrogen, Carlsbad, Calif.) to remove traces of DNA contamination and the cDNAs were synthesized with 2.5 μg of RNA using Stratascript reverse transcriptase (Stratagene, Santa Clara, Calif.) according to the manufacturers' protocols. Quantitative PCR was performed in duplicate essentially as described previously (Komarnytsky et al., Int. J. Obes. 35: 236-43, 2011) using the following gene-specific primers (IDT, Coralville, Iowa) selected using the Primer Express 2.0 software (Applied Biosystems, Foster City, Calif.): β-actin, forward primer 5′-GGGAAATCGTGCGTGACATT-3′ (SEQ ID NO: 5), and reverse primer 5′-GCG GCA GTG GCC ATC TC-3′ (SEQ ID NO: 6). Target gene expression of the housekeeping gene β-actin was assigned a value of 1. Samples were subjected to a melting curve analysis to confirm the amplification specificity. The relative change in the […] with respect to the endogenous control gene was determined using 2ΔΔCT method (Winer et al., Anal. Biochem. 270: 41-9, 1999).

[3] = test system: cutaneous wound in C57BL/6J mice; experiment: Mouse cutaneous injury model of wound healing; type: in vivo
Procedure: Under volatile anesthesia (5% isoflurane to effect), the shoulder and back region of each animal was shaved. A sharp punch (ID 6 mm) over their lumbar spine was applied to remove the skin, including panniculus carnosus and adherent tissues. Test substances were administered topically (TOP), immediately following cutaneous injury, once daily for 10 consecutive days. […] Wounds were traced onto clear plastic sheets and were measured by use of an ImageJ program (rsbweb.nih.gov/ij/), online from the National Institutes of Health (NIH). ImageJ is a public domain, Java-based image processing program developed at the NIH. Time to wound closure was estimated by comparing the area of the wound undergoing treatment to the areas of the wound undergoing control treatments. The percent closure of the wound (%) was calculated, and wound half-closure time (the time at which 50% of the cutaneous wound is closed, CT50) was analyzed by linear regression using Graph-Prism (Graph Software USA). At the end of experiment (10 days after the induction of the wound), animals were euthanized by CO2 gas inhalation. Blood was collected by heart puncture. Wound tissue and muscle were collected for immunohistochemical analyses and wound healing factor assays. HB increased the percent of wound closure in vivo in a mouse model of wound closure (FIG. 13). […] Twenty seven six-week-old male C57BL/6J mice, obtained from the Jackson Laboratory (Bar Harbor, Me.), were housed in individual chambers in a room maintained at a constant temperature with 12 h light-dark cycle. Mice had free access to food and water. Mice were allowed to adapt to new conditions for seven days and handling the mice was performed daily during this time to reduce the stress of physical manipulation. Mice were randomized into groups (n=9) according to body weight one day prior to dosing. Under volatile anesthesia (5% isoflurane to effect), the shoulder and back region of each animal was shaved. A sharp punch (ID 6 mm) over lumbar spine was applied to remove the skin including panniculus carnosus and adherent tissues. […] Pharmacol. 77: 1117-1124, 2009) as a positive control) was administered topically, immediately following cutaneous injury, and then daily for 10 days. To investigate the kinetics of wound healing, wound size was photographed and measured every two days with ImageJ software (rsbweb.nih.gov/ij/). […] The percent closure of the wound (%) was calculated, and time at which 50% of the cutaneous wound was closed (CT50) was analyzed by linear regression. […] Wound sizes were photographed and measured every 2 days for 10 days. Wound closure (%) relative to day 1 was determined every 2 days, and CT50 was calculated by linear regression. […]

[4] = 10 μg/mouse/day topically for 10 days

## CC[C@@H](C(C)C)[C@H](O)[C@@H](O)[C@@H](C)[C@H]1CC[C@H]2[C@@H]3COC(=O)[C@H]4C[C@H](O)[C@H](O)C[C@]4(C)[C@H]3CC[C@]12C [Compound 1, (22S,23S,24S)-2α,3α,22,23-tetrahydroxy-24 ethyl-β-homo-7-oxo-5α-cholestane-6-one]
[1]
  collagen and elastin production in skin: increases collagen and elastin production in skin
[2]
  ICAM-1 mRNA in wound tissue: significant suppression
  TGF-β mRNA in wound tissue: weak effect on the downregulation
  TNF-α mRNA in wound tissue: nearly complete downregulation
[3]; [4]
  CT50, time at which 50% of the cutaneous wound is closed: 5.4 ± 0.3 days
  cutaneous wound healing compared with vehicle: significantly improved
[3]; 10 μg/mouse/day topically, percent of original wound size
  increase in speed of wound closure relative to control mice: 2 fold
